Legend:
Assay in all cases: biochemical
Set-up in all cases: KINOMEscan competition binding panel (Eurofins DiscoverX), single concentration, percent inhibition
Conditions in all cases: read-out: 15 at 1 µM % inhibition
[1] = biological target: T1, ABL1-nonphosphorylated (Homo sapiens, UniProt P00519)
T1 construct: nonphosphorylated
Procedure, shortened: (§1)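 Binding was profiled in the KINOMEscan panel of over 400 human kinases, with each compound tested at a single concentration of 1 µM to map selectivity.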

[2] = biological target: T2, TRKA (Homo sapiens, UniProt P04629)
T2 construct: gene NTRK1
Procedure, shortened: as §1

[3] = biological target: T3, TIE2 (Homo sapiens, UniProt Q02763)
T3 construct: gene TEK
Procedure, shortened: as §1

[4] = biological target: PIP5K1A (Homo sapiens, UniProt Q99755)
Procedure, shortened: as §1

[5] = biological target: TNK2 (Homo sapiens, UniProt Q07912)
Procedure, shortened: as §1

[6] = biological target: T4, ABL1(T315I)-nonphosphorylated (Homo sapiens, UniProt P00519, T315I)
T4 construct: nonphosphorylated
Procedure, shortened: as §1

[7] = biological target: T5, NDR2 (Homo sapiens, UniProt Q9Y2H1)
T5 construct: gene STK38L
Procedure, shortened: as §1

[8] = biological target: WEE1 (Homo sapiens, UniProt P30291)
Procedure, shortened: as §1

[9] = biological target: PRKG1 (Homo sapiens, UniProt Q13976)
Procedure, shortened: as §1

[10] = biological target: PIM2 (Homo sapiens, UniProt Q9P1W9)
Procedure, shortened: as §1

[11] = biological target: TNIK (Homo sapiens, UniProt Q9UKE5)
Procedure, shortened: as §1

[12] = biological target: T6, YANK3 (Homo sapiens, UniProt Q86UX6)
T6 construct: gene STK32C
Procedure, shortened: as §1

[13] = biological target: T7, TAK1 (Homo sapiens, UniProt O43318)
T7 construct: gene MAP3K7
Procedure, shortened: as §1

[14] = biological target: T8, p38-gamma (Homo sapiens, UniProt P53778)
T8 construct: gene MAPK12
Procedure, shortened: as §1

[15] = biological target: T9, CTK (Homo sapiens, UniProt P42679)
T9 construct: gene MATK
Procedure, shortened: as §1

[16] = biological target: ZAP70 (Homo sapiens, UniProt P43403)
Procedure, shortened: as §1

[17] = biological target: AKT2 (Homo sapiens, UniProt P31751)
Procedure, shortened: as §1

[18] = biological target: EGFR(L858R,T790M) (Homo sapiens, UniProt P00533, L858R/T790M)
Procedure, shortened: as §1

[19] = biological target: CAMKK2 (Homo sapiens, UniProt Q96RR4)
Procedure, shortened: as §1

[20] = biological target: HIPK3 (Homo sapiens, UniProt Q9H422)
Procedure, shortened: as §1

[21] = biological target: MET(M1250T) (Homo sapiens, UniProt P08581, M1250T)
Procedure, shortened: as §1

[22] = biological target: EGFR (Homo sapiens, UniProt P00533)
Procedure, shortened: as §1

[23] = biological target: T10, ICK (Homo sapiens, UniProt Q9UPZ9)
T10 construct: gene CILK1
Procedure, shortened: as §1

[24] = biological target: MKNK1 (Homo sapiens, UniProt Q9BUB5)
Procedure, shortened: as §1

MET(M1250T), sequence (P08581 whole entry M1250T): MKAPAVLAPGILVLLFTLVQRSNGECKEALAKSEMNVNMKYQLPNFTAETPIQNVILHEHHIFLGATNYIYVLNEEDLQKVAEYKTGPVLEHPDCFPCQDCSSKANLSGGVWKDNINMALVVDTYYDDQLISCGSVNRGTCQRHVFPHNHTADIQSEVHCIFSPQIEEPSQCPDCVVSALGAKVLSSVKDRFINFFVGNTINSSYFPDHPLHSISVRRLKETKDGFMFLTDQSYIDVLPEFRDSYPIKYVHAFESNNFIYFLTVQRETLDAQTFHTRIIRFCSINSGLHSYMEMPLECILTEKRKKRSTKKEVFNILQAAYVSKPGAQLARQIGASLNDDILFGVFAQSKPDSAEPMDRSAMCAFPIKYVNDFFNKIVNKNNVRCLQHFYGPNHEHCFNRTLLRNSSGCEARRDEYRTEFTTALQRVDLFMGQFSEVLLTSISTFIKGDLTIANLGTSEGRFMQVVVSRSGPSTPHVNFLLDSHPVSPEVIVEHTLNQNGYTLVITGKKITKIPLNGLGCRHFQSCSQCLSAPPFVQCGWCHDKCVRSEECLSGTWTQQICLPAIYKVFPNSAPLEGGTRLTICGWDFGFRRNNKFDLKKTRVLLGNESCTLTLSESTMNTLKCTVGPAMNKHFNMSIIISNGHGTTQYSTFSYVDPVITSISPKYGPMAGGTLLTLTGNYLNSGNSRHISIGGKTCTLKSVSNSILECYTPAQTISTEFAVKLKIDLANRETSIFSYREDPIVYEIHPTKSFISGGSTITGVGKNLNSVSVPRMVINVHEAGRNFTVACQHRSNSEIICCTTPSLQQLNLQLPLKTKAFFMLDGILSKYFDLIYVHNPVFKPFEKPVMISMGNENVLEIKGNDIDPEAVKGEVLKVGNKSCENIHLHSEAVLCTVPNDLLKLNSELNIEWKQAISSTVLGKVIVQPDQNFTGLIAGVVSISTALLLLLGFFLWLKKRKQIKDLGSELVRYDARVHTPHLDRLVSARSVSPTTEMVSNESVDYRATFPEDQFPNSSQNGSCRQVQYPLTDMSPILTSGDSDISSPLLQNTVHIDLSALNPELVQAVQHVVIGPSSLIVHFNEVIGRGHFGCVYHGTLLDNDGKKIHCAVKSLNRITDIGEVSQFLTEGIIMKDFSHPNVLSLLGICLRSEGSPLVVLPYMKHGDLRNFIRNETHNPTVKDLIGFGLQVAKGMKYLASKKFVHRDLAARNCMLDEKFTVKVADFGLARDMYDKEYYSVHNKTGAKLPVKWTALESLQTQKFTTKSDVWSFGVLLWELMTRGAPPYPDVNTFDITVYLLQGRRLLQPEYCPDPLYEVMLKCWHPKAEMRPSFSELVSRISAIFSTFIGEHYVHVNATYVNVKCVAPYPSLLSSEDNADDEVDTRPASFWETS
WEE1, sequence (P30291 whole entry): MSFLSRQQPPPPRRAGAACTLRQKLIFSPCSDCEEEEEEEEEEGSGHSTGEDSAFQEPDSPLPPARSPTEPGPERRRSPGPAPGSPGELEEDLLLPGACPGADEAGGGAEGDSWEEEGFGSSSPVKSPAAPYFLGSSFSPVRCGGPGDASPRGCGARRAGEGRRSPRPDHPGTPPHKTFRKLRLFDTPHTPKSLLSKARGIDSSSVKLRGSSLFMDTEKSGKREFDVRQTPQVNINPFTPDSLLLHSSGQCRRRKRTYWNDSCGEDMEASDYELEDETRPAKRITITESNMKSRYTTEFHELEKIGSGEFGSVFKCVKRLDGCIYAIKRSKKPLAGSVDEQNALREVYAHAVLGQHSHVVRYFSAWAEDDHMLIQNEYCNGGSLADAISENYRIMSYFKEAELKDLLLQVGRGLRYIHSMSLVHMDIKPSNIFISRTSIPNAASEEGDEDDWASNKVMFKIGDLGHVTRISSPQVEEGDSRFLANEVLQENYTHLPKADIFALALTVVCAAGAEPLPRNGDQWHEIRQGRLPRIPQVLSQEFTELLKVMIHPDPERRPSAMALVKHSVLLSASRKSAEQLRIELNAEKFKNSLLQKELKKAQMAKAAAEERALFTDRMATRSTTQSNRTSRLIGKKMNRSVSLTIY
HIPK3, sequence (Q9H422 whole entry): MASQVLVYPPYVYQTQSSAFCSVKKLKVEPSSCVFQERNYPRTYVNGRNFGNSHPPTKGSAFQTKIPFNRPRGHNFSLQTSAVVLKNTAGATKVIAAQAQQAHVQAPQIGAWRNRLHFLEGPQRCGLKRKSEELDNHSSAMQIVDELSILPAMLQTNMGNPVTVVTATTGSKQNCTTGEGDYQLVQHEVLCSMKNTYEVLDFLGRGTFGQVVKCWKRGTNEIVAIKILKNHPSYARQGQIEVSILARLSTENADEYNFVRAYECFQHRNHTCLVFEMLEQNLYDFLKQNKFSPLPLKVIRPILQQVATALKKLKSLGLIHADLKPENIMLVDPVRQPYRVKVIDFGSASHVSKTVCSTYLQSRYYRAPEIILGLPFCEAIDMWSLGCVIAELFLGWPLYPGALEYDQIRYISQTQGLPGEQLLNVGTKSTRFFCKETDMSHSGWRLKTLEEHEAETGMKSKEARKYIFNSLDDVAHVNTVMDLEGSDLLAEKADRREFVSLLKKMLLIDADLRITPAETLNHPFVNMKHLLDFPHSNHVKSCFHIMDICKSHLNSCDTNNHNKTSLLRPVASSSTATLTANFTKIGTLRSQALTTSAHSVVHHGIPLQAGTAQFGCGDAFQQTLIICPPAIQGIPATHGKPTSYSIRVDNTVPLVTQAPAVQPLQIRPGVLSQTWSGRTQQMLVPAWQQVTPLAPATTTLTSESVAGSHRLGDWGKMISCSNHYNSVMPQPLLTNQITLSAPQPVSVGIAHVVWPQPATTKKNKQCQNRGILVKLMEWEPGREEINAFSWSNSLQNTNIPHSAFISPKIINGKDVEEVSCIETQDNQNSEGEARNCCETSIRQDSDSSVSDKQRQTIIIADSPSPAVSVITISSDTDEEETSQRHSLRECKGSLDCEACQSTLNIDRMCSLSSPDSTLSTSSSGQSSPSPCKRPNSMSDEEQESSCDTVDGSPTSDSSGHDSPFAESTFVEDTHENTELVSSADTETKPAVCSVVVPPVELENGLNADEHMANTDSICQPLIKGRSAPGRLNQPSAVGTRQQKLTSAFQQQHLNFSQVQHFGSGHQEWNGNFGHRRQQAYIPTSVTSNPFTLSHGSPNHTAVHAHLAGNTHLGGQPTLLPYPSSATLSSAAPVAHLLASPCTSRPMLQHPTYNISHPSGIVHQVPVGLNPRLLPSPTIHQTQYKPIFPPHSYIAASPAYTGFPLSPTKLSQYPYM
EGFR(L858R,T790M), sequence (P00533 whole entry T790M/L858R): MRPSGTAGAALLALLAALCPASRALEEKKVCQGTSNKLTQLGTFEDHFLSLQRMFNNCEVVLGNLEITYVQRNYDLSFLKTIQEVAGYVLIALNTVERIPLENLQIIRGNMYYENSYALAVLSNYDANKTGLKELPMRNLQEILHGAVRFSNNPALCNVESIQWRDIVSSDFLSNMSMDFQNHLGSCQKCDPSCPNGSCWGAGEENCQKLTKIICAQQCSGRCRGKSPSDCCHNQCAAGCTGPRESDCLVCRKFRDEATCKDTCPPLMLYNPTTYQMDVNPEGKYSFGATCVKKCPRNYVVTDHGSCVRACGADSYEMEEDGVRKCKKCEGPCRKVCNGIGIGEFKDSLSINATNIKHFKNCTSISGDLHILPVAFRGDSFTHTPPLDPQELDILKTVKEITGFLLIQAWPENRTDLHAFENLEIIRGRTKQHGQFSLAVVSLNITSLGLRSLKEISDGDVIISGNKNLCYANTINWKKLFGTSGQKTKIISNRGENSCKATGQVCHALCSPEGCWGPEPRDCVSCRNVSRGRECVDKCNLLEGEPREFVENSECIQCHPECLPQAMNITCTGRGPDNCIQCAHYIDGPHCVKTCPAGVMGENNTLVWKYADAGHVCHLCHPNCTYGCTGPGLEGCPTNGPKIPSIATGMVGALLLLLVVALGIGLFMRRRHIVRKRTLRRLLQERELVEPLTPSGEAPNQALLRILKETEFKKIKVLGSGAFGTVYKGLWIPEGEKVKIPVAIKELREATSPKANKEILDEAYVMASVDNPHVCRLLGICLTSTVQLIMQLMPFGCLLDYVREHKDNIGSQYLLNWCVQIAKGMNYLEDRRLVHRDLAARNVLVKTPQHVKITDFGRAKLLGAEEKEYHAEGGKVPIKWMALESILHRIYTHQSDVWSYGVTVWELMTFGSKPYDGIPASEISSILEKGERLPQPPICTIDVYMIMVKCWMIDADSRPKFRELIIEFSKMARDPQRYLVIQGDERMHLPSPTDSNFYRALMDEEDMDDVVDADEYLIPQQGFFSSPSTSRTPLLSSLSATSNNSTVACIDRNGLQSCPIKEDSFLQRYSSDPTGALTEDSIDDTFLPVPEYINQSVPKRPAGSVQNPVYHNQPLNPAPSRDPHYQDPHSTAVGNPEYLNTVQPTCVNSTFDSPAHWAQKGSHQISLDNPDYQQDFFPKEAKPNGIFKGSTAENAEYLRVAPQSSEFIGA
PIP5K1A, sequence (Q99755 whole entry): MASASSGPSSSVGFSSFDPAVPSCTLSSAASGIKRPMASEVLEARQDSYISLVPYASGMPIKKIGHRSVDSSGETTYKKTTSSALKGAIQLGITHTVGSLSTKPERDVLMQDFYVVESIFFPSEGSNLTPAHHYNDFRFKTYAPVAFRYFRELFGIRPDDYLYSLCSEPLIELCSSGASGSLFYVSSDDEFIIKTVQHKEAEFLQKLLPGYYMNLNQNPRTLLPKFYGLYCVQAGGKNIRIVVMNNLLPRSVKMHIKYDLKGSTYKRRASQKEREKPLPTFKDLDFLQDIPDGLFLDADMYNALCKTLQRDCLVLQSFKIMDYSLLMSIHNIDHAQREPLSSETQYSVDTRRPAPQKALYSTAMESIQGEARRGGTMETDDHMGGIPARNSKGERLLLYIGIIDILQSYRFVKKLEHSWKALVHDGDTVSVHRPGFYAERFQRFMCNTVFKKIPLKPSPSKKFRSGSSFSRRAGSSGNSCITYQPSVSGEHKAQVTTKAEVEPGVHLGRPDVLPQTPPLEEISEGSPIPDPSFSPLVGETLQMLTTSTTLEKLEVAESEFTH

Compound: CNS(=O)(=O)c1ccc(N(C)C)c(Nc2nc(C)nc3cc(OC)c(OC)cc23)c1 [compound 15, 3-((6,7-dimethoxy-2-methylquinazolin-4-yl)amino)-4-(dimethylamino)-N-methylbenzenesulfonamide]
- inhibition at 1 µM [1]: 13%
- inhibition at 1 µM [2]: 37%
- inhibition at 1 µM [3]: 6%
- inhibition at 1 µM [4]: 22%
- inhibition at 1 µM [5]: 0%
- inhibition at 1 µM [6]: 9%
- inhibition at 1 µM [7]: 6%
- inhibition at 1 µM [8]: 7%
- inhibition at 1 µM [9]: 0%
- inhibition at 1 µM [10]: 0%
- inhibition at 1 µM [11]: 1%
- inhibition at 1 µM [12]: 0%
- inhibition at 1 µM [13]: 24%
- inhibition at 1 µM [14]: 17%
- inhibition at 1 µM [15]: 0%
- inhibition at 1 µM [16]: 0%
- inhibition at 1 µM [17]: 0%
- inhibition at 1 µM [18]: 16%
- inhibition at 1 µM [19]: 3%
- inhibition at 1 µM [20]: 28%
- inhibition at 1 µM [21]: 0%
- inhibition at 1 µM [22]: 0%
- inhibition at 1 µM [23]: 12%
- inhibition at 1 µM [24]: 4%

Source: paper PMC7180948, “New Insights into 4-Anilinoquinazolines as Inhibitors of Cardiac Troponin I–Interacting Kinase (TNNi3K)” (Molecules, 2020)
